In paper PMC4914611 (Nature nanotechnology, 2013):

Target: CM11CD746~1R~TET (Chara corallina, UniProt Q9SSU1)
Conditions: actin filaments; 25 mM imidazole, 25 mM KCl, 1 mM EGTA, 2 mM free Mg2+

Chain of CM11CD746~1R~TET (Q9SSU1 1-746): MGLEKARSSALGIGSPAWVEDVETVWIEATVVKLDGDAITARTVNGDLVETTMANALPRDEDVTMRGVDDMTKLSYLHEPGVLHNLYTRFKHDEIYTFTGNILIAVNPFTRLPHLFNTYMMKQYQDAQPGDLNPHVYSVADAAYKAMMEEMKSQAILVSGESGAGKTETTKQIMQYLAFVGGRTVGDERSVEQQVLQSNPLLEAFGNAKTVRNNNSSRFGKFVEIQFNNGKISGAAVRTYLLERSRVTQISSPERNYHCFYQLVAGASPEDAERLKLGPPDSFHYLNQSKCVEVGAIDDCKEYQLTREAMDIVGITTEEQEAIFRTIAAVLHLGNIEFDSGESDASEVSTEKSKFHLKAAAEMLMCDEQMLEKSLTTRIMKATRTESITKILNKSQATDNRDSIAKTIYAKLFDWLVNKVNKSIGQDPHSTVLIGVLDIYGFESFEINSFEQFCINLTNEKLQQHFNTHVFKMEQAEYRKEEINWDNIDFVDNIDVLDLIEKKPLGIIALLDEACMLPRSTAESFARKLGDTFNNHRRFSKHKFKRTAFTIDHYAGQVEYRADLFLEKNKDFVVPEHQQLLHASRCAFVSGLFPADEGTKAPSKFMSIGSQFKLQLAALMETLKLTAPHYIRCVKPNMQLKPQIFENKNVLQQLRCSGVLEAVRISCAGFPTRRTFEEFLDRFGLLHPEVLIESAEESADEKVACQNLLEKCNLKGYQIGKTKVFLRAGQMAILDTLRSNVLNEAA

For `Nc1ncnc2c1ncn2[C@@H]1O[C@H](COP(=O)(O)OP(=O)(O)OP(=O)(O)O)[C@@H](O)[C@H]1O` [ATP], the “single-molecule fluorescence tracking, run length and velocity vs [ATP]” value was “velocities are shown (mean ± s.e.m.) as a function of [ATP]”.
